Experimental findings from PubChem BioAssay (NCI) are described below.

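Cultured in 96-well plates, cells were exposed to test compound for 48 hours across five concentrations. At the GI50, growth is halved. The concentration for full growth arrest is given as TGI.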

Test systems include MCF7 breast; NCI/ADR-RES ovarian; MDA-MB-231 breast; HL-60(TB) leukemia; HS 578T breast.
Test in all cases: NCI-60 cell line screen, 48 h

For the compound `CC[C@H](C)[C@H](NC(=O)[C@H]1CCCCN1C)C(=O)N(C)[C@H](CCc1nc(C(=O)N[C@@H](Cc2ccccc2)C[C@H](C)C(=O)OC)cs1)C(C)C`, the GI50 with MCF7 breast is 0.0648 µM; with NCI/ADR-RES ovarian, 1.38 µM; in the experiment with MDA-MB-231 breast it was 0.36 µM; in the experiment on HL-60(TB) leukemia, 0.0677 µM; in the experiment on HS 578T breast it was 0.322 µM. The TGI with MCF7 breast was more than 25 µM; in the experiment with NCI/ADR-RES ovarian, more than 25 µM; with MDA-MB-231 breast, 1.8 µM; in the experiment on HL-60(TB) leukemia, 0.242 µM; in the experiment on HS 578T breast, 5.29 µM.
In the case of `O=C(O)C1C(C(=O)O)C(C(=O)O)C1C(=O)O` (configuration not stated), the TGI in the experiment with MCF7 breast, with NCI/ADR-RES ovarian, in the experiment with MDA-MB-231 breast and in the experiment with HS 578T breast was more than 100 µM each time.
As to `Cc1[nH]c(N=Nc2ccccc2)nc1N=Nc1ccccc1`, the GI50 was 2.73 µM in the experiment on MCF7 breast; 2.78 µM with NCI/ADR-RES ovarian; 5.25 µM with MDA-MB-231 breast; 2.56 µM with HL-60(TB) leukemia; 12.8 µM in the experiment with HS 578T breast. Further, the TGI in the experiment with MCF7 breast was 15.3 µM; in the experiment with NCI/ADR-RES ovarian, 27.3 µM; with MDA-MB-231 breast, more than 45.4 µM; in the experiment on HL-60(TB) leukemia it was more than 23.6 µM; with HS 578T breast, more than 34.8 µM.
Turning to `COc1cc2c3c(n(CCCCl)c(=O)c2cc1OC)-c1ccccc1C3=O`, the GI50 is 8.9 µM with MCF7 breast, 6.36 µM with NCI/ADR-RES ovarian, 37 µM in the experiment with MDA-MB-231 breast and 23.5 µM in the experiment with HS 578T breast. Further, the TGI in the experiment with MCF7 breast, in the experiment with NCI/ADR-RES ovarian, in the experiment with MDA-MB-231 breast and with HS 578T breast was more than 100 µM each time.
Consider `Cc1cc(C)cc(Nc2cc(C)nc3nc(C(F)(F)F)nn23)c1`, for which the GI50 in the experiment on MCF7 breast is more than 100 µM; with NCI/ADR-RES ovarian it was more than 100 µM; in the experiment with MDA-MB-231 breast it was more than 100 µM; with HL-60(TB) leukemia, more than 100 µM; in the experiment with HS 578T breast it was 34.9 µM. Also, the TGI in the experiment with MCF7 breast, with NCI/ADR-RES ovarian, with MDA-MB-231 breast, with HL-60(TB) leukemia and in the experiment with HS 578T breast was more than 100 µM each time.
On to `COc1cc2c3c(n(CCCBr)c(=O)c2cc1OC)-c1ccc(NC(C)=O)cc1C3=O`, for which the GI50 is 1.82 µM in the experiment with MCF7 breast; 39.4 µM with NCI/ADR-RES ovarian; 25.8 µM with MDA-MB-231 breast; 0.55 µM with HL-60(TB) leukemia; 40.6 µM with HS 578T breast. The TGI is more than 100 µM with MCF7 breast; more than 100 µM in the experiment with NCI/ADR-RES ovarian; more than 100 µM in the experiment on MDA-MB-231 breast; 7.78 µM in the experiment on HL-60(TB) leukemia; more than 100 µM with HS 578T breast.
Take `COc1cccc(N=Cc2c3ccccc3c(=O)n3c2oc2ccccc23)c1`: the GI50 with MCF7 breast was 4.06 µM; in the experiment on NCI/ADR-RES ovarian, 11.6 µM; with MDA-MB-231 breast, 10.2 µM; with HS 578T breast it was 34.9 µM. Further, the TGI in the experiment with MCF7 breast is more than 100 µM; in the experiment on NCI/ADR-RES ovarian, 64.3 µM; in the experiment on MDA-MB-231 breast, 48.7 µM; in the experiment with HS 578T breast, more than 100 µM.
Regarding `CN1C(NC(=O)c2ccc(Cl)nc2)=NS(=O)(=O)c2cc(Cl)ccc21`, the GI50 in the experiment on MCF7 breast, in the experiment with NCI/ADR-RES ovarian, with MDA-MB-231 breast, in the experiment on HL-60(TB) leukemia and in the experiment on HS 578T breast was more than 100 µM each time. Also, the TGI in the experiment on MCF7 breast, with NCI/ADR-RES ovarian, in the experiment on MDA-MB-231 breast, in the experiment with HL-60(TB) leukemia and in the experiment with HS 578T breast was more than 100 µM in each case.
Consider `O=C(C[C@@H](C(=O)NCc1cccc(C(F)(F)F)c1)N1C(=O)[C@@H](N2C(=O)OC[C@@H]2c2ccccc2)[C@H]1/C=C/c1ccccc1)NC1CCN(Cc2ccccc2)CC1`, for which the GI50 with MCF7 breast is 1.61 µM; in the experiment on NCI/ADR-RES ovarian, more than 100 µM; in the experiment with MDA-MB-231 breast it was 4.02 µM; in the experiment on HL-60(TB) leukemia it was 10.4 µM; in the experiment on HS 578T breast, 10.3 µM. For the same compound, the TGI in the experiment with MCF7 breast is 3.51 µM; in the experiment with NCI/ADR-RES ovarian it was more than 100 µM; with MDA-MB-231 breast, 20 µM; in the experiment on HL-60(TB) leukemia, 33.8 µM; in the experiment on HS 578T breast, 29.6 µM.
For the compound `C[C@]12CC[C@@H]3c4ccc(Oc5nc(N6CC6)nc(N6CC6)n5)cc4CC[C@H]3[C@@H]1CCC2=O`, the GI50 in the experiment on MCF7 breast is 2.78 µM; in the experiment with NCI/ADR-RES ovarian it was 4.6 µM; in the experiment with MDA-MB-231 breast it was 10.2 µM; in the experiment with HL-60(TB) leukemia, 0.529 µM; with HS 578T breast, 4.64 µM. Moreover, the TGI in the experiment with MCF7 breast was found to be 14.7 µM; in the experiment on NCI/ADR-RES ovarian, 33.2 µM; in the experiment on MDA-MB-231 breast, 25.2 µM; in the experiment with HL-60(TB) leukemia it was 3.26 µM; with HS 578T breast, 44.8 µM.
Regarding `COc1ccc(-n2c(SCc3cc(OC)c(OC)c(OC)c3)nc3ccc(C)cc3c2=O)cc1`, the GI50 in the experiment on MCF7 breast is 3.71 µM; in the experiment on NCI/ADR-RES ovarian, 3.71 µM; in the experiment with MDA-MB-231 breast, 5.73 µM; in the experiment with HL-60(TB) leukemia, 3.74 µM; in the experiment on HS 578T breast, 6.06 µM. Moreover, the TGI in the experiment with MCF7 breast, in the experiment on NCI/ADR-RES ovarian, in the experiment with MDA-MB-231 breast, in the experiment with HL-60(TB) leukemia and in the experiment on HS 578T breast was more than 100 µM in each case.
With `Cc1c2c(nn1-c1ccc(S(=O)(=O)/N=C3\SCC(=O)N3C(=O)c3ccccc3)cc1)-c1ccccc1CC2`, the GI50 was more than 100 µM with NCI/ADR-RES ovarian, 24 µM with MDA-MB-231 breast and 65.5 µM in the experiment with HL-60(TB) leukemia. In addition, the TGI in the experiment with NCI/ADR-RES ovarian was more than 100 µM; in the experiment with MDA-MB-231 breast, 58.7 µM; in the experiment with HL-60(TB) leukemia it was more than 100 µM.
Consider `COc1ccc(OC(=O)O[C@H]2[C@H](O[C@H]3[C@@H](O)COC(O[C@H]4C[C@H]5[C@@H]6CC=C7C[C@@H](O)CC[C@]7(C)[C@H]6CC[C@]5(C)[C@H]4[C@H](C)C(=O)CCC(C)C)[C@@H]3OC(C)=O)OC[C@@H](O)[C@@H]2O)cc1` (some centres not stated), for which the GI50 was 0.0782 µM in the experiment on MCF7 breast; 13 µM with NCI/ADR-RES ovarian; 0.961 µM with MDA-MB-231 breast; 0.0686 µM in the experiment on HL-60(TB) leukemia; less than 0.01 µM in the experiment with HS 578T breast. For the same compound, the TGI in the experiment with MCF7 breast is 12.8 µM; in the experiment with NCI/ADR-RES ovarian, more than 100 µM; with MDA-MB-231 breast, 18.1 µM; in the experiment on HL-60(TB) leukemia it was 18.7 µM; in the experiment with HS 578T breast it was 0.185 µM.
As for `COc1ccc2cc(C(=O)/C=C/c3cccc(OC)c3OC)ccc2c1`, the GI50 is 0.455 µM with MCF7 breast, 6.57 µM in the experiment with NCI/ADR-RES ovarian, 14.8 µM with MDA-MB-231 breast and 25.5 µM in the experiment on HS 578T breast. Further, the TGI with MCF7 breast was 22.9 µM; in the experiment on NCI/ADR-RES ovarian, 34.3 µM; in the experiment with MDA-MB-231 breast, 38.5 µM; with HS 578T breast, 73.9 µM.
Take `C[C@]12CC[C@@H]3c4ccc(O)cc4CC[C@H]3[C@@H]1CC[C@@H]2NS(=O)(=O)c1ccc(C(F)(F)F)cc1`: the GI50 in the experiment with MCF7 breast was 2.26 µM; with NCI/ADR-RES ovarian it was 2.17 µM; with MDA-MB-231 breast it was 1.74 µM; in the experiment with HS 578T breast, 2.23 µM. Further, the TGI with MCF7 breast was 5 µM; in the experiment on NCI/ADR-RES ovarian it was 5.7 µM; with MDA-MB-231 breast, 3.31 µM; in the experiment on HS 578T breast, 6.01 µM.
